Laboratory results reported in patent US7098219B2, “Inhibitors of cellular efflux pumps of microbes” (Wockhart Limited, priority 2000, dated 2006).

Test system: Mef Efflux Pump of Streptococcus pneumoniae 3514 and Streptococcus pyogenes 26-00
Test: Two plate diffusion assay for macrolide (Mef) efflux pump inhibitors, azithromycin plate versus control plate
Format: cell-based
Details: zone of inhibition in antibiotic plate (method: azithromycin 0.5 mcg/ml; footnote: levofloxacin) minus water control plate; strain not given

| Compound | Difference in Zone diameter Z1 (mm) |
| --- | --- |
| 1-Cyclopropyl-6-fluoro-8-methoxy-1,4-dihydro-7-{-4′-(t-butoxycarbonyl (L)-Ala-Ala)amino 3′,3′-dimethylpiperidin-1-yl}-4-oxo-quinoline-3-carboxylic acid [Example 34 (Mef)] | 8 mm |
| O=C(O)c1cn(C2CC2)c2nc(N3CC4C(C3)C4NCc3ccccc3)c(F)cc2c1=O (centres unmarked) [Example 21 (Mef), 1-Cyclopropyl-6-fluoro-1,4-dihydro-7-{(1∝,5∝,6∝)-6-amino-N-benzyl-3-azabicyclo[3.1.0]hex-6-yl}-4-oxo-1,8-naphthyridine-3-carboxylic acid] | 17 mm |
| NCC1CN(c2cc3c(cc2F)c(=O)c(C(=O)O)cn3C2CC2)CCC1O (centres unmarked) [Example 31 (Mef), 1-Cyclopropyl-6-fluoro-1,4-dihydro-7-(3′-aminomethyl-4′-hydroxypiperidin 1-yl)-4-oxo-quinoline-3-carboxylic acid] | 6 mm |
| CCOC(=O)c1cn(-c2ccc(F)cc2F)c2nc(N3CCC(N)C(C)(C)C3)c(F)c(C)c2c1=O (centres unmarked) [Example 38 (Mef), Ethyl 1-(2,4-difluorophenyl)-6-fluoro-5-methyl-1,4-dihydro-7-(4-amino-3,3-dimethylpiperidin-1-yl)-4-oxo-1,8-naphthyridine-3-carboxylate] | 10 mm |
| NC1CCN(c2nc3c(cc2F)c(=O)c(C(=O)O)cn3-c2ccc(F)cc2F)C1 (centres unmarked) [Example 22 (Mef)] | 8 mm |
| C[C@H]1CCc2c(N3CCC(O)C(F)C3)c(F)cc3c(=O)c(C(=O)O)cn1c23 (stereo partly drawn) [Example 39 (Mef), (S)-(−)-9-Fluoro-6,7-dihydro-8-(4′-hydrox 3′-fluoropiperidin-1-yl)-5-methyl-1-oxo-1H,5H-benzo[i,j]quinolizine-2-carboxylic acid] | 8 mm |
| CC1CN(c2c(F)c(N)c3c(=O)c(C(=O)O)cn(C4CC4)c3c2F)CCC1N (centres unmarked) [Example 13 (Mef), 5-Amino-1-cyclopropyl-6,8-difluoro-1,4-dihydro-7-(4′-amino-3′-methylpiperidin-1-yl)-4-oxo-quinoline-3-carboxylic acid] | 20 mm |
| NC1CCN(c2nc3c(cc2F)c(=O)c(C(=O)O)cn3C2CC2)C1 (centres unmarked) [Example 20 (Mef)] | 10 mm |
| CNC1CCN(c2c(F)c(N)c3c(=O)c(C(=O)O)cn(C4CC4)c3c2OC)CC1(C)C (centres unmarked) [Example 2 (Mef), 5-Amino-1-cyclopropyl-6-fluoro-8-methoxy-1,4-dihydro-7-{4′-(methylamino)-3′,3′-dimethylpiperidin-1-yl}-4-oxo-quinoline-3-carboxylic acid] | 8 mm |
| CNC1CCN(c2cc3c(c(C)c2F)c(=O)c(C(=O)O)cn3-c2ccc(F)cc2F)CC1 [Example 19 (Mef), 1-(2′,4′-Difluorophenyl)-6-fluoro-5-methyl-1,4-dihydro-7-(4′-methylaminopiperidin-1′-yl)-4-oxo-quinoline-3-carboxylic acid] | 8 mm |
| CC1CN(c2nc3c(cc2F)c(=O)c(C(=O)O)cn3-c2ccc(F)cc2F)CC(C)C1N (centres unmarked) [Example 37 (Mef), 1-(2,4-difluorophenyl)-6-fluoro-1,4-dihydro-7-(4-amino-3,5-dimethylpiperidin-1-yl)-4-oxo-1,8-naphthyridine-3-carboxylic acid] | 7 mm |

Test system: Staphylococcus aureus 1199 B NorA+
Test: not given
Format: cell-based
Details: combination with ciprofloxacin, broth microdilution checkerboard, 35° C. 20 hours; FIC index ≦0.5 synergistic, 0.5–2.0 additive, >2.0 antagonistic
Description: Testing method for inhibition of the efflux pump of Staphylococcus aureus 1199B NorA^+
[…]. Victor Lorian, Md., Fourth edition 1996, pp 333–338).
In short, the assay involves broth microdilution method performed as recommended by the National Committee for Clinical Laboratory Standards (NCCLS) 1997 (Methods for Dilution of Antimicrobial Susceptibility Tests for Bacteria that Grow Aerobically, Fourth edition; Approved Standard, NCCLS document M7-A4, vol. 17, No. 2). The test organism used for the assay is Staphylococcus aureus 1199 B NorA^+.
[…]. Stock solutions of the efflux pump inhibitors tested are prepared in dimethyl sulfoxide (DMSO) at a final concentration of 5 mg/ml. Stock solutions are further diluted in Mueller Hinton Broth as per the need of the assay. Ciprofloxacin is dissolved in water.
The checkerboard assay is performed in microtiter plates. […] The efflux pump inhibitor is diluted in the Y-axis, each row containing an equal concentration of efflux pump inhibitor. The result of these manipulations is that each well of the microtiter plate contains a unique combination of concentrations of the two agents. Bacterial inoculum is added at 5×10^5 CFU/ml. Microtiter plates are incubated at 35° C. for 20 hours. Reading is done by visibly noting turbidity and confirmed using a microtiter plate reader (Molecular Devices). The FIC index is calculated as
(A) is the concentration of the experimental efflux pump inhibitor in the well that is the lowest inhibitory concentration in the Y-axis. (MICA) is the MIC of Staphylococcus aureus to experimental efflux pump inhibitor alone. FICA is the fractional inhibitory concentration of an experimental efflux pump inhibitor. […] (Antimicrobial Combination In Antibiotics in Laboratory Medicine, Ed. Victor Lorian, Md., Fourth edition 1996, pp 333–338).

| Compound | FIC INDEX |
| --- | --- |
| O=C(O)c1cn(C2CC2)c2nc(NC3CCN(c4nc5c(cc4F)c(=O)c(C(=O)O)cn5C4CC4)C3)c(F)cc2c1=O (centres unmarked) [Bis compound 2] | 0.282 |
| CCCCN(CCCC)C1CCN(c2c(F)c(N)c3c(=O)c(C(=O)O)cn(C4CC4)c3c2F)CC1 [Example 28 (NorA), 5-Amino-1-cyclopropyl-6,8-difluoro-1,4-dihydro-7-{4′-(N-di-n-butylamino)piperidin-1-yl)-4-oxo-quinoline-3-carboxylic acid] | 0.314 |
| CC1CCC(N)N1c1c(F)c(N)c2c(=O)c(C(=O)O)cn(C3CC3)c2c1F (centres unmarked) [Example 26 (NorA), 5-Amino-1-cyclopropyl-6,8-difluoro-1,4-dihydro-7-(5′-amino-2′-methyl-pyrrolidin-1-yl)-4-oxo-quinoline-3-carboxylic acid] | 0.628 |
| Nc1c(F)c(N2CCC(N)C2)c(F)c2c1c(=O)c(C(=O)O)cn2-c1ccc(C(F)(F)F)cc1 (centres unmarked) [Example 43 (NorA), 5-Amino-1-(4′-trifluoromethylphenyl)-6,8-difluoro-1,4-dihydro-7-(3′-aminopyrrolidin-1-yl)-4-oxo-quinoline-3-carboxylic acid] | 0.564 |
| CCn1cc(C(=O)O)c(=O)c2c(N)c(F)c(N3CCC(NC(C)=O)CC3)c(F)c21 [Example 7 (NorA), 5-Amino-1-ethyl-6,8-difluoro-1,4-dihydro-7-{4′-(acetamido)piperidin-1-yl}-4-oxo-quinoline-3-carboxylic acid] | 0.312 |
| CCOC(=O)c1cn(-c2ccc(F)cc2F)c2nc(N3CCc4c(cnn4-c4ccccc4)C3)c(F)cc2c1=O [Example 52 (NorA), Ethyl 6-fluoro-7-[1-Phenyl-4,5,6,7-tetrahydropyrazolo[4.3-c]pyridin-1-yl]-1-(2,4-difluorophenyl)-4-oxo-1,4-dihydro-1,8-naphthyridine-3-carboxylate] | 0.100 |
| CC1CN(c2cc3c(cc2F)c(=O)c(C(=O)O)cn3C2CC2)CC(C)N1C (centres unmarked) [Example 15 (NorA), 1-Cyclopropyl-6-fluoro-1,4-dihydro-7-(3′,4′,5′-trimethylpiperazin-1-yl)-4-oxo-quinoline-3-carboxylic acid] | 0.314 |
| CC1CC(N)CN1c1cc2c(cc1F)c(=O)c(C(=O)O)cn2C1CC1 (centres unmarked) [Example 10 (NorA), 1-Cyclopropyl-6-fluoro-1,4-dihydro-7-(3′-amino-5′-methylpyrrolidin-1-yl)-4-oxo-quinoline-3-carboxylic acid] | 0.314 |
| CCOC(=O)c1cc(F)c(NC2CCN(c3c(F)c(N)c4c(=O)c(C(=O)O)cn(C5CC5)c4c3F)CC2)c(F)c1F [Bis compound 10, N-1-{7-(1-cyclopropyl-6,8-difluoro-5-amino-1,4-dihydro-4-oxo-quinolone-3-carboxylic acid)}-N-4-amino-{ethyl 2,3,6-trifluorophenyl-4-carboxylate}-piperidine] | 0.304 |
| COc1c(N2CCC(N(C)C)C(C)C2)c(F)cc2c(=O)c(C(=O)O)cn(C3CC3)c12 (centres unmarked) [19 (NorA), 1-Cyclopropyl-6-fluoro-8-methoxy-1,4-dihydro-7-{4′-(N-dimethylamino)-3′-methylpiperidin-1-yl}-4-oxo-quinoline-3-carboxylic acid] | 0.200 |
| CC1CN(c2c(F)c(N)c3c(=O)c(C(=O)O)cn(C4CC4)c3c2F)CC(C)N1C(=O)C(C)(C)C (centres unmarked) [Example 37 (NorA), 5-Amino-1-cyclopropyl-6,8-difluoro-1,4-dihydro-7-(3′,5′-dimethyl-4-pivaloylpiperazin-1-yl)-4-oxo-quinoline-3-carboxylic acid] | 0.314 |
| CCOC(=O)c1cn([C@@H](C)CCSc2ccccc2)c2c(F)c(N3CCC(O)CC3)c(F)cc2c1=O [Example 38 (NorA), Ethyl 6,8-Difluoro-7-(4-hydroxypiperidin-1-yl)-1-(1-phenylthio-3(S)-but-3-yl)-1,4-dihydro-4-oxo-quinoline-3-carboxylate] | 0.100 |
| COc1c(N2CC(C)C(N)C(C)C2)c(F)c(N)c2c(=O)c(C(=O)O)cn(C3CC3)c12 (stereo not drawn) [Example 24 (NorA), 5-Amino-1-cyclopropyl-6-fluoro-8-methoxy-1,4-dihydro-7-(cis-4′-amino-3′,5′-dimethylpiperidin-1-yl)-4-oxo-quinoline-3-carboxylic acid] | 0.314 |
| CC1COCC(C)N1c1c(F)c(N)c2c(=O)c(C(=O)O)cn(-c3ccccc3C(F)(F)F)c2c1F (centres unmarked) [Example 41 (NorA), 5-Amino-1-(2′-trifluoromethylphenyl)-6,8-difluoro-1,4-dihydro-7-(3′,5′-dimethylmorpholin-1-yl)-4-oxo-quinoline-3-carboxylic acid] | 0.384 |
| CCNC1CCN(c2cc3c(cc2F)c(=O)c(C(=O)O)cn3-c2ccc(F)cc2)CC1 [Example 44 (NorA)] | 0.189 |
| CC1COCC(C)N1c1c(F)c(N)c2c(=O)c(C(=O)O)cn(C3CC3)c2c1F (centres unmarked) [Example 35 (NorA), 5-Amino-1-cyclopropyl-6,8-difluoro-1,4-dihydro-7-(3′,5′-dimethylmorpholin-1-yl)-4-oxo-quinoline-3-carboxylic acid] | 0.314 |
| CN(c1c(F)c(N)c2c(=O)c(C(=O)O)cn(C3CC3)c2c1F)C1CC(C)(C)N(C)C(C)(C)C1 [Example 34 (NorA)] | 0.282 |
| Nc1c(F)c(N2CCN(C3CC3)CC2)c(F)c2c1c(=O)c(C(=O)O)cn2C1CC1 [Example 36 (NorA), 5-Amino-1-cyclopropyl-6,8-difluoro-1,4-dihydro-7-(4′-cyclopropylpiperazin-1-yl)-4-oxo-quinoline-3-carboxylic acid] | 0.314 |
